Data: PubChem BioAssay AID330 (DTP/NCI, 2004)
Values joined by “and” are separate entries in the source; they are usually repeats but may differ in a detail not shown here. Equal values may be shown once. Inconclusive results and toxic doses are left out. The calls were made as follows: active = survival T/C of 150% or more; inactive = T/C below 125% in these data.

System: P388 leukemia ip, CD2F1 mice, survival T/C
Assay: NCI In Vivo Anticancer Drug Screen. Data for tumor model P388 Leukemia (intraperitoneal) in CD2F1 (CDF1) mice
Settings: endpoint: median survival time, higher = longer survival
Summary of the method: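 Mice carrying the transplanted tumor received test compound or vehicle. Survival was recorded in each group, and the value is the treated-group measurement divided by that of the vehicle-treated control group.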

[1] = dose: 60.0 mg/kg/injection, schedule: Q01DX005 (ip), vehicle: saline with Tween-80
[2] = dose: 120.0 mg/kg/injection, schedule: Q01DX005 (ip), vehicle: saline with Tween-80
[3] = dose: 240.0 mg/kg/injection, schedule: Q01DX005 (ip), vehicle: saline with Tween-80
[4] = dose: 50.0 mg/kg/injection, schedule: Q01DX005 (ip), vehicle: saline with Tween-80
[5] = dose: 100.0 mg/kg/injection, schedule: Q01DX005 (ip), vehicle: saline with Tween-80
[6] = dose: 200.0 mg/kg/injection, schedule: Q01DX005 (ip), vehicle: saline with Tween-80
[7] = dose: 12.5 mg/kg/injection, schedule: Q01DX009 (ip), vehicle: Klucel (hydroxypropylcellulose) (HPC)
[8] = dose: 25.0 mg/kg/injection, schedule: Q01DX009 (ip), vehicle: Klucel (hydroxypropylcellulose) (HPC)
[9] = dose: 50.0 mg/kg/injection, schedule: Q01DX009 (ip), vehicle: Klucel (hydroxypropylcellulose) (HPC)
[10] = dose: 100.0 mg/kg/injection, schedule: Q01DX009 (ip), vehicle: Klucel (hydroxypropylcellulose) (HPC)
[11] = dose: 200.0 mg/kg/injection, schedule: Q01DX009 (ip), vehicle: Klucel (hydroxypropylcellulose) (HPC)
[12] = dose: 100.0 mg/kg/injection, schedule: Q04DX003 (ip), vehicle: saline with Tween-80
[13] = dose: 200.0 mg/kg/injection, schedule: Q04DX003 (ip), vehicle: saline with Tween-80
[14] = dose: 100.0 mg/kg/injection, schedule: Q01DX001 (ip), vehicle: saline with Tween-80
[15] = dose: 200.0 mg/kg/injection, schedule: Q01DX001 (ip), vehicle: saline with Tween-80
[16] = dose: 400.0 mg/kg/injection, schedule: Q01DX001 (ip), vehicle: saline with Tween-80

Measured: T/C

COc1ccc(-c2c(C(N)=O)cnc(C)c2C)c(OCc2ccccc2)c1OC
inactive: dose: 0.05 mg/kg/injection, schedule: Q01DX009 (ip), vehicle: water 104 % of control | dose: 0.1 mg/kg/injection, schedule: Q01DX009 (ip), vehicle: water 117 % of control | dose: 0.2 mg/kg/injection, schedule: Q01DX009 (ip), vehicle: water 104 % of control | dose: 0.4 mg/kg/injection, schedule: Q01DX009 (ip), vehicle: water 103 % of control and 117 % of control | dose: 0.8 mg/kg/injection, schedule: Q01DX009 (ip), vehicle: water 106 % of control | dose: 1.6 mg/kg/injection, schedule: Q01DX009 (ip), vehicle: water 106 % of control | dose: 3.2 mg/kg/injection, schedule: Q01DX009 (ip), vehicle: water 109 % of control | dose: 6.25 mg/kg/injection, schedule: Q01DX009 (ip), vehicle: other 98 % of control | dose: 6.4 mg/kg/injection, schedule: Q01DX009 (ip), vehicle: water 109 % of control | dose: 12.5 mg/kg/injection, schedule: Q01DX009 (ip), vehicle: other 101 % of control | dose: 25.0 mg/kg/injection, schedule: Q01DX009 (ip), vehicle: other 103 % of control | dose: 50.0 mg/kg/injection, schedule: Q01DX009 (ip), vehicle: other 105 % of control | dose: 100.0 mg/kg/injection, schedule: Q01DX009 (ip), vehicle: other 105 % of control | dose: 200.0 mg/kg/injection, schedule: Q01DX009 (ip), vehicle: other 104 % of control | dose: 400.0 mg/kg/injection, schedule: Q01DX009 (ip), vehicle: other 107 % of control

C1=CN2C(c3ccccc3)=NON(c3ncccn3)C2N=C1 (configuration not stated)
inactive: [1] 96 % of control | [2] 91 % of control | [3] 90 % of control

OCCN(CCO)Cc1nc2ccccc2[nH]1
inactive: dose: 50.0 mg/kg/injection, schedule: Q01DX005 (ip), vehicle: saline 104 % of control | dose: 100.0 mg/kg/injection, schedule: Q01DX005 (ip), vehicle: saline 99 % of control | dose: 200.0 mg/kg/injection, schedule: Q01DX005 (ip), vehicle: saline 101 % of control

COc1ccc(C2(C)C(C#N)(C#N)C2(C#N)C#N)cc1
inactive: dose: 18.75 mg/kg/injection, schedule: Q01DX009 (ip), vehicle: saline 103 % of control | dose: 37.5 mg/kg/injection, schedule: Q01DX009 (ip), vehicle: saline 100 % of control | dose: 75.0 mg/kg/injection, schedule: Q01DX009 (ip), vehicle: saline 116 % of control | dose: 150.0 mg/kg/injection, schedule: Q01DX009 (ip), vehicle: saline 111 % of control

C#Cc1cccc(N=Cc2cc(Br)cc(OC)c2O)c1
inactive: [4] 90 % of control | [5] 92 % of control | [6] 111 % of control

CC1SC2(C(=O)Nc3ccc(Br)cc32)N(c2ccc(Cl)cc2)C1=O (configuration not stated)
inactive: [1] 97 % of control | [2] 109 % of control | [3] 100 % of control

O=C1Nc2ccc(Cl)cc2C(c2ccccc2)=NC1O (configuration not stated)
inactive: [7] 97 % of control | [8] 97 % of control | [9] 108 % of control | [10] 89 % of control | [11] 111 % of control | dose: 400.0 mg/kg/injection, schedule: Q01DX009 (ip), vehicle: Klucel (hydroxypropylcellulose) (HPC) 99 % of control

Oc1ccc(CCNCc2ccc3c(c2)OCO3)cc1
inactive: [12] 99 % of control | [13] 95 % of control

Cc1cc2ccccc2c(N=Cc2cc(Br)cc(Br)c2O)c1C#N
inactive: [14] 95 % of control | [15] 98 % of control | [16] 112 % of control

O=Cc1c(-c2ccccc2)sc2ccccc2c1=O
inactive: dose: 100.0 mg/kg/injection, schedule: Q04DX002 (ip), vehicle: saline with Tween-80 113 % of control | dose: 200.0 mg/kg/injection, schedule: Q04DX002 (ip), vehicle: saline with Tween-80 98 % of control | dose: 400.0 mg/kg/injection, schedule: Q04DX002 (ip), vehicle: saline with Tween-80 109 % of control

O=c1c2ccccc2nc(-c2ccccc2Cl)n1/N=C/c1ccc(Cl)cc1Cl
inactive: [4] 93 % of control | [5] 103 % of control | [6] 102 % of control

CCC12NC(=O)NC1(C)NC(=O)N2 (configuration not stated)
inactive: dose: 6.25 mg/kg/injection, schedule: Q01DX009 (ip), vehicle: saline with Tween-80 91 % of control | dose: 12.5 mg/kg/injection, schedule: Q01DX009 (ip), vehicle: saline with Tween-80 91 % of control | dose: 16.5 mg/kg/injection, schedule: Q01DX009 (ip), vehicle: saline with Tween-80 100 % of control

COc1ccc2c(c1)CCC1(C)CC(=O)C=C21 (configuration not stated)
inactive: dose: 6.25 mg/kg/injection, schedule: Q01DX009 (ip), vehicle: Klucel (hydroxypropylcellulose) (HPC) 115 % of control | [7] 114 % of control | [8] 108 % of control

COC(=O)C(=O)C(C(=O)c1ccc(F)cc1)c1nc2n(c1O)C(=N)N=N2 (configuration not stated)
inactive: [1] 102 % of control | [2] 86 % of control

COc1ccc(N=Nc2c(-c3ccccc3)nn(C(=S)SC)c2-c2ccccc2)cc1
inactive: [14] 92 % of control | [15] 95 % of control | [16] 108 % of control

COC(=O)C(Br)c1cccc(OC)c1 (configuration not stated)
inactive: dose: 132.0 mg/kg/injection, schedule: Q04DX003 (ip), vehicle: saline with Tween-80 100 % of control | dose: 178.0 mg/kg/injection, schedule: Q01DX009 (ip), vehicle: saline with Tween-80 100 % of control | [13] 100 % of control | dose: 266.0 mg/kg/injection, schedule: Q01DX009 (ip), vehicle: saline with Tween-80 100 % of control | dose: 300.0 mg/kg/injection, schedule: Q04DX003 (ip), vehicle: saline with Tween-80 100 % of control | dose: 400.0 mg/kg/injection, schedule: Q01DX009 (ip), vehicle: saline with Tween-80 100 % of control

Cc1cc(Cl)ccc1OCC(C)OC(=O)NC(C)C (configuration not stated)
inactive: [9] 106 % of control | [10] 97 % of control | [11] 101 % of control

CC1(C)CC(=O)c2c(oc3cc4c5c(oc4cc23)CC(C)(C)CC5=O)C1
inactive: dose: 12.5 mg/kg/injection, schedule: Q01DX005 (ip), vehicle: saline with Tween-80 90 % of control | dose: 25.0 mg/kg/injection, schedule: Q01DX005 (ip), vehicle: saline with Tween-80 91 % of control | [5] 87 % of control | [6] 92 % of control

Cn1c2nc3ccccc3c-2nc2ccccc21
inactive: dose: 1.56 mg/kg/injection, schedule: Q01DX009 (ip), vehicle: water 100 % of control | dose: 3.13 mg/kg/injection, schedule: Q01DX009 (ip), vehicle: water 92 % of control | dose: 6.25 mg/kg/injection, schedule: Q01DX009 (ip), vehicle: water 88 % of control | [7] 92 % of control | [8] 99 % of control | [9] 109 % of control | [10] 106 % of control | [11] 107 % of control

CN(CCO)C1=C(N2CC2)C(=O)C(N(C)CCO)=C(N2CC2)C1=O
119 % of control and 262 % of control: dose: 1.6 mg/kg/injection, schedule: Q01DX009 (ip), vehicle: saline
active: dose: 0.4 mg/kg/injection, schedule: Q01DX009 (ip), vehicle: saline 175 % of control and 194 % of control | dose: 0.8 mg/kg/injection, schedule: Q01DX009 (ip), vehicle: saline 194 % of control and 245 % of control

CC(=O)OC1CCC2C3CCc4cc(OP(=O)(N5CC5)N5CC5)ccc4C3CCC12C (configuration not stated)
inactive: dose: 50.0 mg/kg/injection, schedule: Q01DX009 (ip), vehicle: saline with Tween-80 92 % of control | dose: 100.0 mg/kg/injection, schedule: Q01DX009 (ip), vehicle: saline with Tween-80 114 % of control | dose: 200.0 mg/kg/injection, schedule: Q01DX009 (ip), vehicle: saline with Tween-80 108 % of control

Cn1c2ccccc2c2oc(-c3nn[nH]n3)cc(=O)c21
inactive: dose: 60.0 mg/kg/injection, schedule: Q01DX005 (ip), vehicle: Klucel (hydroxypropylcellulose) (HPC) 97 % of control | dose: 120.0 mg/kg/injection, schedule: Q01DX005 (ip), vehicle: Klucel (hydroxypropylcellulose) (HPC) 105 % of control | dose: 240.0 mg/kg/injection, schedule: Q01DX005 (ip), vehicle: Klucel (hydroxypropylcellulose) (HPC) 100 % of control

CCCCOC(=O)C(NC(N)=O)SC (configuration not stated)
inactive: dose: 50.0 mg/kg/injection, schedule: Q04DX003 (ip), vehicle: saline with Tween-80 95 % of control | [12] 100 % of control | [13] 99 % of control
